Like-named read-outs stand apart in the source and are kept apart here.
What was measured:
[1] = test system: mouse; assay: Mouse tail flick assay; type: in vivo; details: even at a high dose of 100 mg/kg; data not shown
[2] = test system: ICR (CD−1) male mice; assay: Formalin test (mouse, phase II paw licking); type: in vivo
Procedure: The formalin test was carried out using the method described previously. During the formalin test, Institute of Cancer Research (ICR; CD−1) male mice (weight: 22–25 g) were acclimated to the environment for two days before the experiment with food and water available freely. The mice were housed under a 12 h/12 h light/dark cycle. The temperature and humidity of the room were kept at 25 ± 2 °C and 50–60%, respectively. The mice were divided into a vehicle group, a ralfinamide group, and test compound groups randomly, with eight mice in each group. All compounds were dissolved in saline and administered by intraperitoneal injection (n = 8) or intragastric administration by mouth (n = 8) at 10 mg/kg. The vehicle group was given the same volume of saline.
After administration, the mice were placed into polyvinyl chloride (PVC) observation chambers. Thirty minutes later, the mice were injected subcutaneously with 20 μL of 2.7% formalin solution into the surface of their right hind paw and were returned to their PVC chambers immediately to observe their behavior. The cumulative time each mouse licked its right hind paw during phase II (15–30 min) was recorded as its painful time in phase II. The analgesic effects of the compounds were presented as the mean ± standard deviation. The data were analyzed by SPSS using one-way analysis of variance followed by Dunnett’s test. The analgesic activity of the test compounds was calculated according to the following formula. %Analgesia=Average Time (Vehicle)−Average Time (Drug)/Average Time (Vehicle)× 100%

[3] = test system: ICR (CD−1) male mice; assay: Formalin test (mouse, phase II paw licking); type: in vivo; remark: listed apart in the source
[4] = target: T1, hNav1.8 (Homo sapiens, UniProt Q9Y5Y9); assay: Whole-cell patch clamp assay for hNav1.8 inhibition (CHO cells stably expressing hNav1.8); type: cell-based
T1 construct: expressed in transfected cells; host or cells: CHO
Procedure: The whole-cell patch clamp assay assessing the hNav1.8 current was carried out at room temperature with Chinese hamster ovary cells stably expressing hNav1.8. The holding voltage of the membrane was transferred to 0 mV from −120 mV for 50 ms and then restored to −50 mV for 8 s. After that, the membrane potential was renewed to −120 mV for 20 ms, which was followed by a depolarization to 0 mV for 50 ms. Finally, the potential was recovered to the holding voltage of −120 mV for 30 ms. This process was performed every 20 s. The compounds were administered when the voltage of hNav1.8 was stable. Every compound concentration was tested for 5 min, and all compounds were tested at several concentrations and with multiple cells.

[5] = test system: mouse; assay: Mouse hotplate assay; type: in vivo; details: even at a high dose of 100 mg/kg; data not shown
[6] = test system: ICR (CD-1) male mice; assay: Acetic acid-induced writhing test; type: in vivo; details: 10 mg/kg, i.p.; writhes in 20 min; mean ± SD, n = 6
Procedure: The writhing test was performed according to a previously reported method. The ICR (CD-1) male mice (weight: 22–25 g) were treated as for the formalin test in the same environment. The mice were divided into a vehicle group, a ralfinamide group, and test compound groups randomly, with six mice in each group. All compounds were dissolved in saline and administered by intraperitoneal injection at 10 mg/kg. The vehicle group was given the same volume of saline. After administration, the mice were placed into PVC chambers. Thirty minutes later, the mice were injected with 1% acetic acid solution at 10 mL/kg by intraperitoneal injection and placed into the observation chambers immediately to record the number of writhes each mouse had in 20 min. The results were presented as the mean ± standard deviation. The analytical method was the same as that for the formalin test, and the analgesic activity of each compound was calculated by the following formula. %Analgesia=Average Number (Vehicle)−Average Number (Drug)/Average Number (Vehicle)× 100%

[7] = target: T2, hNav1.5 (Homo sapiens, UniProt Q14524); assay: Assay for hNav1.5 inhibition (HEK293 cells stably expressing hNav1.5); type: cell-based
T2 construct: expressed in transfected cells; host or cells: HEK293
T2 sequence (Q14524 whole entry): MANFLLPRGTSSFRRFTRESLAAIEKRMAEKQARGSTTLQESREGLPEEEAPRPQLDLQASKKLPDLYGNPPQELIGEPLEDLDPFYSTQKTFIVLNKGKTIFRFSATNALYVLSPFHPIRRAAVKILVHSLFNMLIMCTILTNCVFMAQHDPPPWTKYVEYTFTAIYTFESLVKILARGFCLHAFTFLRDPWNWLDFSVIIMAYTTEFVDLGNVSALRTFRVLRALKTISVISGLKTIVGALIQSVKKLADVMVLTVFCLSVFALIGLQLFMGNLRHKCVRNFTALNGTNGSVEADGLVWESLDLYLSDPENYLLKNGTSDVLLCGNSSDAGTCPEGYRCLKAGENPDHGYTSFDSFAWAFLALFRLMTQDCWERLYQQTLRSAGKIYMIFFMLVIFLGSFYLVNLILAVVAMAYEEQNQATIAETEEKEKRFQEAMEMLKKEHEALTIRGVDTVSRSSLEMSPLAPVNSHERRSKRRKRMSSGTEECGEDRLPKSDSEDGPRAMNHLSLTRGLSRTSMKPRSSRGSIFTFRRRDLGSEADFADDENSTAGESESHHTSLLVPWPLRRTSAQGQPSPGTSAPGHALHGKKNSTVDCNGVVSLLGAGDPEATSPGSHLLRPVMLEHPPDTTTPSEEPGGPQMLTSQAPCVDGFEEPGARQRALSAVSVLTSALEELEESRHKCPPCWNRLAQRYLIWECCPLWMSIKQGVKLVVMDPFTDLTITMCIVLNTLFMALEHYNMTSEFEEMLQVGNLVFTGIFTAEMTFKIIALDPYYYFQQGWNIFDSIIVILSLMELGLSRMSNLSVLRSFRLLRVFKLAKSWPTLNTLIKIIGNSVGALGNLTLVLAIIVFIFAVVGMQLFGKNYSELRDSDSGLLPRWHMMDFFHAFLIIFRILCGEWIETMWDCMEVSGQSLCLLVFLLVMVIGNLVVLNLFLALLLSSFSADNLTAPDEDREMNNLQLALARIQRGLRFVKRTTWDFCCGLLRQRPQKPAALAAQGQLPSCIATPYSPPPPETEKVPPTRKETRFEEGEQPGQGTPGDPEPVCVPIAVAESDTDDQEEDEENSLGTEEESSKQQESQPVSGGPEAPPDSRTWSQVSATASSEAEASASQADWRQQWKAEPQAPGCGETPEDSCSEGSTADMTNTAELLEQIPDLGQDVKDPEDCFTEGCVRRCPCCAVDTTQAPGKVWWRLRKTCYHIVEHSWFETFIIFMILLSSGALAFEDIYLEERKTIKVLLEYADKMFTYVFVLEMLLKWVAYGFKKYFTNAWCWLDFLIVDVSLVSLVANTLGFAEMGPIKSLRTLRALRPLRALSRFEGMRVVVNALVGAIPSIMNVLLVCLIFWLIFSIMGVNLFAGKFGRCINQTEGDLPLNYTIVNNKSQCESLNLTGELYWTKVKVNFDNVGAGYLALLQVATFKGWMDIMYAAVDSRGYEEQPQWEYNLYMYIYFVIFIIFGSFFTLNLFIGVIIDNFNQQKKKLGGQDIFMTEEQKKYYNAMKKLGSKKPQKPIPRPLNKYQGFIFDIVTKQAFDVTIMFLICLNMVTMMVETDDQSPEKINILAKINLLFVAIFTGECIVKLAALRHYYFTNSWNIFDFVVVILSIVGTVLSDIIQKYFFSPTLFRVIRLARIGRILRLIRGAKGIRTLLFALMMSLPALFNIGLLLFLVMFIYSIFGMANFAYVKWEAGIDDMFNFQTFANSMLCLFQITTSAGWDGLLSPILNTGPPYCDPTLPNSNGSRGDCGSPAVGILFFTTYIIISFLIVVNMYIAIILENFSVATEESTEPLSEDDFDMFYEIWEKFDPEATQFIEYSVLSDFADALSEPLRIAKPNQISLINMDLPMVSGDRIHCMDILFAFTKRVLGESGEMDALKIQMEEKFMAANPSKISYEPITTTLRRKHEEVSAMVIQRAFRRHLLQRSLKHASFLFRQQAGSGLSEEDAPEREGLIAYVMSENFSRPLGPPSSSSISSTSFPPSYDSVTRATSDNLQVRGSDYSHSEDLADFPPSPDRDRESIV
Procedure: The inhibition of the compounds to hNav1.5 peak current was performed at room temperature using HEK293 cells that could express hNav1.5 stably. The holding voltage of the membrane was transferred to 0 mV from −120 mV for 50 ms and then restored to −50 mV for 8 s. After that, the membrane potential was renewed to −120 mV for 20 ms, followed by a depolarization to 0 mV for 50 ms. At last, the potential was recovered to the holding voltage −120 mV for 30 ms. This progress was performed every 20 s. The compounds were administrated when the voltage of hNav1.5 was stable. Every concentration was tested for 5 min and all compounds were tested at several concentrations and with multiple cells.

[8] = target: T3, hNav1.7 (Homo sapiens, UniProt Q15858); assay: Whole-cell patch clamp assay for hNav1.7 inhibition (HEK293 cells stably expressing hNav1.7); type: cell-based; details: for inhibition at 10 µM: HEK293, TTX-sensitive Nav1.7 current, mean ± SD
T3 construct: expressed in transfected cells; host or cells: HEK293
T3 sequence (Q15858 whole entry): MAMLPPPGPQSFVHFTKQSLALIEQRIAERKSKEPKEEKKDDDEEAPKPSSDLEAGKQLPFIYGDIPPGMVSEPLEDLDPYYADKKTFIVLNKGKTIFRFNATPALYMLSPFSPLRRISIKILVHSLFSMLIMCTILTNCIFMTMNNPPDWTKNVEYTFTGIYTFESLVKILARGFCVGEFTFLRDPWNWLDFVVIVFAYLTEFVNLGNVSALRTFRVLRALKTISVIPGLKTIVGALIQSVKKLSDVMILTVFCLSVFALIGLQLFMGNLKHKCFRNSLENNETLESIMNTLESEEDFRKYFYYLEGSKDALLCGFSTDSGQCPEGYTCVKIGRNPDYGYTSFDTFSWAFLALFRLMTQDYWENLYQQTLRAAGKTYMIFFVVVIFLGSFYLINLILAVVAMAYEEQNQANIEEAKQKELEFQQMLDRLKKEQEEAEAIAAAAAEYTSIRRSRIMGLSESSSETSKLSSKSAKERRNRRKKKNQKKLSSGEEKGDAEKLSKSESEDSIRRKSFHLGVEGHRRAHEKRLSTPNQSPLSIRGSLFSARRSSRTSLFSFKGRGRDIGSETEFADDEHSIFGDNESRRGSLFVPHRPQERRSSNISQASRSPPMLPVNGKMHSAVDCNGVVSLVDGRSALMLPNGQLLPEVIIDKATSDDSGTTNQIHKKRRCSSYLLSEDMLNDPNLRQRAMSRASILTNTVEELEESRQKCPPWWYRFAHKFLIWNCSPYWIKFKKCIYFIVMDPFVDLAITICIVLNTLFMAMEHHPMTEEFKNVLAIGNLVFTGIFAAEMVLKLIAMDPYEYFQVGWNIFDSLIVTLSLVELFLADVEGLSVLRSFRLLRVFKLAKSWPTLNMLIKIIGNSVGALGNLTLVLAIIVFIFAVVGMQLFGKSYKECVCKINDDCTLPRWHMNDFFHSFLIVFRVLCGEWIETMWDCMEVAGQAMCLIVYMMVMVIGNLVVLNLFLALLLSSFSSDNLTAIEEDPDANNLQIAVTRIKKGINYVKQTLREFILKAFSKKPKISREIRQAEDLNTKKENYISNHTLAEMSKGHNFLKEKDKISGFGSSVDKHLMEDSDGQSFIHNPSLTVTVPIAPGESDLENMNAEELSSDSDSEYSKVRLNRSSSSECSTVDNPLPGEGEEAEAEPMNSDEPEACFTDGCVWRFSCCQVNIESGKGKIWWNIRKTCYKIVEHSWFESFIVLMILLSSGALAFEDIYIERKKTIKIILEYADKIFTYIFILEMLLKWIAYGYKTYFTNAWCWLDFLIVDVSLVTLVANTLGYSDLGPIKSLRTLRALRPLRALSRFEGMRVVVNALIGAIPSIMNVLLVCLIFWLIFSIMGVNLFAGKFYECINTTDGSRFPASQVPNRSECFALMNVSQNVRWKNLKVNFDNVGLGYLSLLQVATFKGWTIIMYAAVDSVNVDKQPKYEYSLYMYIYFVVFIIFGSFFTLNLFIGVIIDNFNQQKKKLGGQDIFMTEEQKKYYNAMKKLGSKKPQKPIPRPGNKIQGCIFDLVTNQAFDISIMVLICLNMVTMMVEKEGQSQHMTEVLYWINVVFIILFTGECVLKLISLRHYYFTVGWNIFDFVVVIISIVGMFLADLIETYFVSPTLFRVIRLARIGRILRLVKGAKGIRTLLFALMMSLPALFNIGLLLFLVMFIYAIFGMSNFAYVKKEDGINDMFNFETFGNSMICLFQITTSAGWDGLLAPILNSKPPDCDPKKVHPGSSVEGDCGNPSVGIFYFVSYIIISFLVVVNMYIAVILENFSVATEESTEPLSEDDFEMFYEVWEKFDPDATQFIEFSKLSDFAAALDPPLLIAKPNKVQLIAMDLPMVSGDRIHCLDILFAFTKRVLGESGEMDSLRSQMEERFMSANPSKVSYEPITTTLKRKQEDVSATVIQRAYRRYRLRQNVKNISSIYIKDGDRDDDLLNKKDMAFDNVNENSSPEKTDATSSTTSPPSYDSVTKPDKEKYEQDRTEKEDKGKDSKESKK
Procedure: The compounds were tested as hNav1.7 peak current inhibitors at room temperature using human embryonic kidney 293 cells stably expressing hNav1.7. The holding voltage was depolarized to 0 mV from −120 mV for 20 ms and restored to −75 mV for 8 s. After that, the membrane potential was recovered to −120 mV for 20 ms and then depolarized to 0 mV for another 20 ms. Finally, the voltage was renewed to −120 mV for 30 ms. The potential was applied every 20 s. The compounds were administered when the voltage of hNav1.7 recorded by the whole-cell patch clamp was stable. Every compound concentration was tested for 5 min, and all compounds were tested at several concentrations and with multiple cells.

C[C@H](NCc1cccc(COc2cccc3occc23)c1)C(N)=O [Compound 6a, (S)-2-((3-((Benzofuran-4-yloxy)methyl)benzyl)amino)propanamide]
Analgesic effect in tail flick assay (in words) [1]: no analgesic effect
% Analgesia (formalin test) ([2]; 10 mg/kg, i.p., phase II (15–30 min), mean ± SD, n = 8): 84.0 ± 16.2 ^☆ * %
inhibition in vivo at 10 mg/kg ([2]; Mus musculus, ip, 10 mg/kg, i.p., phase II (15–30 min), mean ± SD, n = 8, read-out: % Analgesia (formalin test)): 84%
Percentage of analgesia relative to ralfinamide (times higher) ([2]; formalin test, 10 mg/kg): 1.5–2 times
Analgesic activity after intragastric administration by mouth (in words) ([2]; formalin test, oral administration assay, compared to ralfinamide): higher analgesic activity than ralfinamide
Analgesic response (formalin test) ([3]; 5 mg/kg, intraperitoneal injection, dose-effect relationship assay): 69.6%
Dose dependence of analgesic activity (in words) ([3]; formalin test, 2.5 mg/kg, 5 mg/kg and 10 mg/kg by intraperitoneal injection): dose-dependent activity
IC50 ([4]; Nav1.8 inactivated state Na+ currents): 4.3 ± 0.5 µM
Potency against Nav1.8 compared to ralfinamide (in words) ([4]; ratio of IC50 values, Table 5): nearly nine-fold more potent
Analgesic effect in mouse hotplate assay (in words) [5]: no analgesic effect
% Analgesia (acetic acid-induced writhing test) [6]: 49.7 ± 11.3 ^☆ %
inhibition at 10 µM ([7]; HEK293, 10 µM, read-out: Inhibitory Effect to Nav1.5): 66.8 ± 1.5%
Inhibitory activity against Nav1.5 (in words) ([7]; similarly to ralfinamide, low selectivity over the cardiac sodium channel): moderate inhibitory activity
inhibition at 10 µM ([8]; read-out: Inhibitory Effect against Nav1.7, Activated State (TP−1)): 15.6 ± 0.8%
inhibition at 10 µM ([8]; read-out: Inhibitory Effect against Nav1.7, Inactivated State (TP−2)): 61.8 ± 0.2%
IC50 ([8]; Table 4, TTX-sensitive inactivated Nav1.7 current): 2.3 ± 0.2 µM
Nav1.7 IC50 compared to ralfinamide (in words) ([8]; ratio of IC50 values, Table 4): three times lower

Reference: paper PMC8003485, “Synthesis and Evaluation of Novel α-Aminoamides Containing Benzoheterocyclic Moiety for the Treatment of Pain” (Molecules, 2021)
